# Results published in patent US10961231B2, “NTCP inhibitors” (National Institute of Biological Sciences, Beijing, priority 2018, dated 2021).
# Read-outs that look alike come from different tables or passages of the source.
# Biological target: T1, NTCP (Homo sapiens, UniProt Q14973)
# T1 sequence (Q14973 1-349): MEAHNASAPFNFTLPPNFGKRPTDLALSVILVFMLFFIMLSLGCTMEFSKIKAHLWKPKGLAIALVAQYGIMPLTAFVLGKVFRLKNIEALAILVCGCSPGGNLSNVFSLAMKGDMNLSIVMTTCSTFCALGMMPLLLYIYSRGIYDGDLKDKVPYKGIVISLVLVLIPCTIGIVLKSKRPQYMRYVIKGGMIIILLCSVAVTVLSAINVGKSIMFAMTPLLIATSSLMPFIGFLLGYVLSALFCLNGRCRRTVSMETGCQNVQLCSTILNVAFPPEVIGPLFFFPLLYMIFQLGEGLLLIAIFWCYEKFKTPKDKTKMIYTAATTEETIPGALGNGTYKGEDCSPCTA
# Experiment: [3H]-TCA uptake assay (NTCP inhibition)
# Format: cell-based
# Summary of the method: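 PTH and HepG2-NTCP cells kept 24 h in PMM to induce NTCP, then exposed 2 h to test compounds or DMSO. Uptake of 1 μM [3H]-taurocholate in Na+ Ringer's buffer (145 mM Na) ran 15 min at 37° C. Cells washed, lysed in 1% Triton X-100, and radioactivity counted by liquid scintillation.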
# [1] = given as a range, assay not given
# [2] = IC50, given as a range, marked * (asterisk not explained)
# [3] = given as a range, marked * (asterisk not explained)
# [4] = IC50, given as a range, assay not given
SMILES,IC50 [1] [nM],IC50 [2] [nM],also measured
"CCC1NC(=O)C(C2OC(Sc3cccc(OC(C)c4ccccc4)c3)CC2C)N(C)C(=O)C(C(C)C)N(C)C(=O)C(CC(C)C)N(C)C(=O)C(CC(C)C)N(C)C(=O)C(C)NC(=O)C(C)NC(=O)C(CC(C)C)N(C)C(=O)C(C(C)C)NC(=O)C(CC(C)C)N(C)C(=O)CN(C)C1=O [Compound 34A, [2-((2R,3R)-3-methyl-5-(3-(1-phenylethoxy)phenylthio)tetrahydrofuran-2-yl)-2-(methylamino)acetic acid]^1-cyclosporin A]",1 to 1000,,
"CC[C@@H]1NC(=O)[C@H]([C@@H]2OC(Sc3cccc(OCc4ccc(-n5cccn5)cc4)c3)C[C@H]2C)N(C)C(=O)[C@H](C(C)C)N(C)C(=O)[C@H](CC(C)C)N(C)C(=O)[C@H](CC(C)C)N(C)C(=O)[C@@H](C)NC(=O)[C@H](C)NC(=O)[C@H](CC(C)C)N(C)C(=O)[C@H](C(C)C)NC(=O)[C@H](CC(C)C)N(C)C(=O)CN(C)C1=O (stereo partly drawn) [Compound 17A, [2-((2R,3R)-5-(3-(4-(1H-pyrazol-1-yl)benzyloxy)phenylthio)-3-methyltetrahydrofuran-2-yl)-2-(methylamino)acetic acid]^1-cyclosporin A]",,,"IC50 (given as a range, assay not given, read-out: IC50): 1 to 1000 nM"
"CCC1NC(=O)C(C2OC(Sc3cccc(OCc4ccc(F)cc4C)c3)CC2C)N(C)C(=O)C(C(C)C)N(C)C(=O)C(CC(C)C)N(C)C(=O)C(CC(C)C)N(C)C(=O)C(C)NC(=O)C(C)NC(=O)C(CC(C)C)N(C)C(=O)C(C(C)C)NC(=O)C(CC(C)C)N(C)C(=O)CN(C)C1=O [Compound 24A, [2-((2R,3R)-5-(3-(4-fluoro-2-methylbenzyloxy)phenylthio)-3-methyltetrahydrofuran-2-yl)-2-(methylamino)acetic acid]^1-cyclosporin A]",1 to 1000,,
CCC1NC(=O)C(C2OC(SC(C)c3ccc(Cl)c(Cl)c3)CC2C)N(C)C(=O)C(C(C)C)N(C)C(=O)C(CC(C)C)N(C)C(=O)C(CC(C)C)N(C)C(=O)C(C)NC(=O)C(C)NC(=O)C(CC(C)C)N(C)C(=O)C(C(C)C)NC(=O)C(CC(C)C)N(C)C(=O)CN(C)C1=O (stereo not shown) [Compound 96A-s],,1000 to 100000,
CCC1NC(=O)C(C2OC(Oc3ccc(OC)c(OC)c3)CC2C)N(C)C(=O)C(C(C)C)N(C)C(=O)C(CC(C)C)N(C)C(=O)C(CC(C)C)N(C)C(=O)C(C)NC(=O)C(C)NC(=O)C(CC(C)C)N(C)C(=O)C(C(C)C)NC(=O)C(CC(C)C)N(C)C(=O)CN(C)C1=O (stereo not shown) [Compound 37A-o],,1000 to 100000,
CCC1NC(=O)C(C2OC(Oc3ccc(N4CCN(C)CC4)cc3)CC2C)N(C)C(=O)C(C(C)C)N(C)C(=O)C(CC(C)C)N(C)C(=O)C(CC(C)C)N(C)C(=O)C(C)NC(=O)C(C)NC(=O)C(CC(C)C)N(C)C(=O)C(C(C)C)NC(=O)C(CC(C)C)N(C)C(=O)CN(C)C1=O (stereo not shown) [Compound 6A-o],,1000 to 100000,
CCC1NC(=O)C(C2OC(Sc3cc(OCCOC)cc(OCCOC)c3)CC2C)N(C)C(=O)C(C(C)C)N(C)C(=O)C(CC(C)C)N(C)C(=O)C(CC(C)C)N(C)C(=O)C(C)NC(=O)C(C)NC(=O)C(CC(C)C)N(C)C(=O)C(C(C)C)NC(=O)C(CC(C)C)N(C)C(=O)CN(C)C1=O (stereo not shown) [Compound 73],,,IC50 [3]: 1000 to 100000 nM
"CCC1NC(=O)C(C2OC(Sc3ccc(OS(C)(=O)=O)cc3)CC2C)N(C)C(=O)C(C(C)C)N(C)C(=O)C(CC(C)C)N(C)C(=O)C(CC(C)C)N(C)C(=O)C(C)NC(=O)C(C)NC(=O)C(CC(C)C)N(C)C(=O)C(C(C)C)NC(=O)C(CC(C)C)N(C)C(=O)CN(C)C1=O [Compound 5A, [2-((2R,3R)-3-methyl-5-(4-(methylsulfonyloxy)phenylthio)tetrahydrofuran-2-yl)-2-(methylamino)acetic acid]^1-cyclosporin A]",,,IC50 [4]: 1000 to 10000 nM
"CCC1NC(=O)C(C2OC(Oc3cccc(OCc4ccccc4)c3)CC2C)N(C)C(=O)C(C(C)C)N(C)C(=O)C(CC(C)C)N(C)C(=O)C(CC(C)C)N(C)C(=O)C(C)NC(=O)C(C)NC(=O)C(CC(C)C)N(C)C(=O)C(C(C)C)NC(=O)C(CC(C)C)N(C)C(=O)CN(C)C1=O (single isomer, unassigned) [Compound 12B-o]",1 to 1000,,
"CCC1NC(=O)C(C2OC(Sc3cccc(OCC4CCOCC4)c3)CC2C)N(C)C(=O)C(C(C)C)N(C)C(=O)C(CC(C)C)N(C)C(=O)C(CC(C)C)N(C)C(=O)C(C)NC(=O)C(C)NC(=O)C(CC(C)C)N(C)C(=O)C(C(C)C)NC(=O)C(CC(C)C)N(C)C(=O)CN(C)C1=O [Compound 33A, [2-((2R,3R)-3-methyl-5-(3-((tetrahydro-2H-pyran-4-yl)methoxy)phenylthio)tetrahydrofuran-2-yl)-2-(methylamino)acetic acid]^1-cyclosporin A]",1 to 1000,,
CCC1NC(=O)C(C2OC(Oc3cc(OCCOC)cc(OCc4ccccc4)c3)CC2C)N(C)C(=O)C(C(C)C)N(C)C(=O)C(CC(C)C)N(C)C(=O)C(CC(C)C)N(C)C(=O)C(C)NC(=O)C(C)NC(=O)C(CC(C)C)N(C)C(=O)C(C(C)C)NC(=O)C(CC(C)C)N(C)C(=O)CN(C)C1=O (stereo not shown) [Compound 11-0],,,IC50 [3]: 1000 to 100000 nM
CCC1NC(=O)C(C2OC(Oc3cccc(OC(C)c4ccccc4)c3)CC2C)N(C)C(=O)C(C(C)C)N(C)C(=O)C(CC(C)C)N(C)C(=O)C(CC(C)C)N(C)C(=O)C(C)NC(=O)C(C)NC(=O)C(CC(C)C)N(C)C(=O)C(C(C)C)NC(=O)C(CC(C)C)N(C)C(=O)CN(C)C1=O (stereo not shown) [Compound 34A-o],,1000 to 100000,
"CCC1NC(=O)C(C2OC(Sc3ccc(SCCCS(=O)(=O)O)cc3)CC2C)N(C)C(=O)C(C(C)C)N(C)C(=O)C(CC(C)C)N(C)C(=O)C(CC(C)C)N(C)C(=O)C(C)NC(=O)C(C)NC(=O)C(CC(C)C)N(C)C(=O)C(C(C)C)NC(=O)C(CC(C)C)N(C)C(=O)CN(C)C1=O [Compound 10A, [2-((2R,3R)-3-methyl-5-(4-(3-sulfopropylthio)phenylthio)tetrahydrofuran-2-yl)-2-(methylamino)acetic acid]^1-cyclosporin A]",1000 to 1e+06,,
CCC1NC(=O)C(C2OC(SCc3cc(Cl)c(F)cc3Cl)CC2C)N(C)C(=O)C(C(C)C)N(C)C(=O)C(CC(C)C)N(C)C(=O)C(CC(C)C)N(C)C(=O)C(C)NC(=O)C(C)NC(=O)C(CC(C)C)N(C)C(=O)C(C(C)C)NC(=O)C(CC(C)C)N(C)C(=O)CN(C)C1=O (stereo not shown) [Compound 103-s],,1000 to 100000,
CCC1NC(=O)C(C2OC(SCc3cccc(Cl)c3)CC2C)N(C)C(=O)C(C(C)C)N(C)C(=O)C(CC(C)C)N(C)C(=O)C(CC(C)C)N(C)C(=O)C(C)NC(=O)C(C)NC(=O)C(CC(C)C)N(C)C(=O)C(C(C)C)NC(=O)C(CC(C)C)N(C)C(=O)CN(C)C1=O (stereo not shown) [Compound 85A-s],,,IC50 [4]: 1000 to 100000 nM
CCC1NC(=O)C(C2OC(SCc3ccc(N4CCOCC4)cc3)CC2C)N(C)C(=O)C(C(C)C)N(C)C(=O)C(CC(C)C)N(C)C(=O)C(CC(C)C)N(C)C(=O)C(C)NC(=O)C(C)NC(=O)C(CC(C)C)N(C)C(=O)C(C(C)C)NC(=O)C(CC(C)C)N(C)C(=O)CN(C)C1=O (stereo not shown) [Compound 99A-s],,1000 to 100000,
CCC1NC(=O)C(C2OC(Sc3ccc(OC)c(OCc4ccccc4)c3)CC2C)N(C)C(=O)C(C(C)C)N(C)C(=O)C(CC(C)C)N(C)C(=O)C(CC(C)C)N(C)C(=O)C(C)NC(=O)C(C)NC(=O)C(CC(C)C)N(C)C(=O)C(C(C)C)NC(=O)C(CC(C)C)N(C)C(=O)CN(C)C1=O (stereo not shown) [Compound 64],,,IC50 [3]: 1000 to 100000 nM
"CCC1NC(=O)C(C2OC(Sc3cc(OC)cc(OC)c3)CC2C)N(C)C(=O)C(C(C)C)N(C)C(=O)C(CC(C)C)N(C)C(=O)C(CC(C)C)N(C)C(=O)C(C)NC(=O)C(C)NC(=O)C(CC(C)C)N(C)C(=O)C(C(C)C)NC(=O)C(CC(C)C)N(C)C(=O)CN(C)C1=O [Compound 38A, [2-((2R,3R)-5-(3,5-dimethoxyphenylthio)-3-methyltetrahydrofuran-2-yl)-2-(methylamino)acetic acid]^1-cyclosporin A]",1 to 1000,,
"CCC1NC(=O)C(C2OC(OCc3c(Cl)cccc3Cl)CC2C)N(C)C(=O)C(C(C)C)N(C)C(=O)C(CC(C)C)N(C)C(=O)C(CC(C)C)N(C)C(=O)C(C)NC(=O)C(C)NC(=O)C(CC(C)C)N(C)C(=O)C(C(C)C)NC(=O)C(CC(C)C)N(C)C(=O)CN(C)C1=O (single isomer, unassigned) [Compound 90B]",1 to 1000,,
